Paper PMC4492822 (EMBO Molecular Medicine, 2015)

Legend:
A549 = experiment: Annexin V / PI flow cytometry, 72 h; assay type: cell-based, human
Method: Histograms depicting early apoptosis (Annexin V positive) and late apoptosis (PI positive) in cells treated with the indicated amounts of RK-33. Cells were either treated with DMSO (controls) or IC50 and IC75 amounts of RK-33. After 72 hours incubation, cells were harvested and stained for Annexin V and PI and analyzed by flow cytometry.

[1] = tested on: Twist1/Kras^G12D lung tumors; experiment: Twist1/KrasG12D autochthonous lung tumor model, hypofractionated radiation (SABR); assay type: in vivo, mouse
Method: Inducible Twist1/Kras^G12D transgenic mice in the FVB/N inbred background were of the genotype: CCSP-rtTA/tetO-KrasG12D/Twist1-tetO-luc (Tran et al, [2012]). All the mice were weaned 3–4 weeks of age and then placed on dox at 4–6 weeks of age. Mice were treated with similar levels of tumor burden per micro-CT and were typically 20–30 weeks old. Mice were treated as in Fig6C and H. Each group consisted of mice, of which multiple index tumors were followed in time by micro-CT and quantified by a board-certified radiation oncologist (JZ) in a blinded fashion. Bi-dimensional measurements were made on tumors using serial examinations and tumor volumes calculated using the equation Volume = π/6 × 1.65 (length × width) × 3/2. Volumes were normalized to the starting volume, t = 0 before treatment. For 15-Gy SABR experiments, the breakdown of animal usage is (1) RT = 3 female mice, (2) RK-33 = 3 females and 1 male mice, (3) carboplatin = 3 male mice, (4) RT + carboplatin = 3 female mice, and (5) RT + RK-33 = 5 female mice. For the 3-Gy XRT experiments, animals used were (1) RT = 3 female and three male mice and (2) RT + RK-33 = four female and three male mice.
(§1) Cells were irradiated at room temperature with 0.5 Gy/min to the desired dose using a Gammacell 40 ^137Cs irradiator. For in vivo experiments, mice were treated using the Small Animal Radiation Research Platform (Wong et al, [2008]). The tumors were irradiated with a circular beam of 1 cm diameter.
The mice underwent micro-CT imaging by use of the Small Animal Radiation Research Platform (SARRP) irradiator described earlier (Wong et al, [2008]). The uncollimated primary beam was used for imaging. A total of 1,800 projections were acquired at approximately 0.2 angular increments. The Feldkamp CBCT algorithm was used for reconstruction. Tumor volumes were quantified from the CT dataset with Pinnacle3 software v.8.1y (Philips Inc, Madison, WI) as described previously (Tran et al, [2011]; Zeng et al, [2013]). Briefly, we viewed 2D images in sagittal, coronal, and transverse views to detect tumors and track them over time. […]

H1299 cells = experiment: Cell cycle analysis by flow cytometry; assay type: cell-based; conditions: 0, 2, 4, and 6 μM, dose-dependent
Method: A549 and H1299 cells were plated at 1 × 10^5 cells per well of a 6-well plate. Cell cycle was carried out as previously described (Vesuna et al, [2012]). Briefly, cells were trypsinized 24 h after plating and fixed in 70% ethanol overnight at −20°C. Fixed cells were washed with PBS and resuspended in DNA-staining solution (5 μg/ml propidium iodide, 0.5 mg/ml RNase A) for 1 h at room temperature. Cell cycle acquisition was performed on a FACScan I or FACSCalibur instrument (BD Biosciences, San Jose, CA, USA). Independent experiments were repeated three times. Data were analyzed using FlowJo software (Tree Star Inc., Ashland, OR, USA).

A549 cells = experiment: Colony-forming assay with γ-radiation; assay type: cell-based, human; conditions: 1 μM and 2 μM, added 4 h before radiation
Method: as §1
Cells were counted, plated, and allowed to attach overnight. RK-33 at specified doses was added 4 h before radiation was delivered. Colonies were stained and counted approximately 10 days after irradiation. Surviving fraction was calculated by dividing the number of colonies formed by the number of cells plated times the plating efficiency. Curves were fitted with a quadratic polynomial equation. P-values were determined by the extra sum of square F-test.

[2] = tested on: preclinical breast and sarcoma models; experiment: Single agent activity in preclinical breast and sarcoma models; assay type: in vivo; conditions: authors' response to reviewers
Text: EMBO Molecular Medicine Peer Review Process File - EMM-2014-04368 levels vary based on the datasets analyzed. In addition, as far as DDX3 protein levels are concerned, […]
making it difficult to interpret the gene expression datasets as an absolute unit to that of the protein […]
3) A more detailed description of expression in other normal tissues would help anticipate toxicities.
Response: It is difficult to ascertain if the levels of DDX3 in the normal cells will directly correlate to toxicities levels following RK-33 treatment. It is possible that normal cells are not dependent on DDX3 for its cellular biogenesis as compared to the cancer cells. This could be one of the reasons why there is no observable toxicity within our experimental setting. Also, as a first step to determine toxicity for a novel drug, it is essential to test the effect in small animals like mouse or rat. Based on these criteria, we observed no toxicity in mouse at higher levels than the therapeutic dose to kill […]
impart any visible side effects.
4) Legends for Figure 2 are mislabeled.
Response: We thank the reviewer for pointing this out. We have rectified this in the revised […]
5) What is the subsrate in the helicase assay. Have the authors explored RNA secondary (e.g. G-quadruplex or hairpin structures)? […]
10) Figure 7. Please add a quantification of cell death. […]

diimidazo[4,5-d:4′,5′-f]-[1,3]diazepine [RK-33]
cells in gate of Annexin V/PI plot (A549; 9 uM, first (upper) value of panel): 81.7 | cells in gate of Annexin V/PI plot (A549; 9 uM, second value of panel): 4.44 | cells in gate of Annexin V/PI plot (A549; 9 uM, third (lowest) value of panel): 4.73 | cells in gate of Annexin V/PI plot (A549; 10.5 uM, first (upper) value of panel): 85.3 | cells in gate of Annexin V/PI plot (A549; 10.5 uM, second value of panel): 5.99 | cells in gate of Annexin V/PI plot (A549; 10.5 uM, third (lowest) value of panel): 2.26 | Ki67 positive cells in lung tumors ([1]; RK-33 and radiation treatment): decrease in Ki67 positive cells | enhancement of the radiation effect (tumor volume by micro-CT) ([1]; i.p. RK-33 with 15-Gy SABR, 1 week after treatment): 3.7 fold | radiation sensitization relative to that caused by carboplatin ([1]; with SABR): 1.5 fold | cell cycle effect (H1299 cells): G1 arrest | sensitization to γ-radiation (A549 cells): sensitized A549 cells to γ-radiation | single agent activity [2]: delayed tumor growth
